Results from patent US7629502B2, “Non-antibiotic selection marker genes” (Academia Sinica, priority 2006, dated 2009).
“Also recorded” adds a separate entry of the source.

Key:
Assay type in all cases: in vivo, Arabidopsis thaliana
[1] = tested on: AtTSB1 transgenic plants (TM1, TM3, TM4); assay: Free Trp content analysis (GC-MS), TSB transgenic plants; details: for Endogenous contents of tryptophan: two-week old plants
Method: (§1) Two-week old wild-type and transgenic plants were harvested from germination medium with or without 50 μM 5MT. Endogenous free tryptophan analysis was performed described previously (Edlund et al., 1995) with some modification. Cell extracts were prepared from approximately 50 mg dry weight. Frozen tissues were ground with methanol under continuous shaking for 24 h at 4° C. After centrifuged, the supernatant was filtered by 0.22 μm membrane (Millipore Millexg). The filtered solution was reduced to 1 ml in a Speed Vac concentrator. The final solution was extracted by SEP column (Water Oasis HLB6 cc) and use 1 ml methanol to elute the extracts. Each 100 μl sample was methylated with 160 μl pyridine and 40 μl […]-N-trimethylsilyl-trifuoroacetamide at 70° C. for 1 hr. The GC-MS analysis was performed according to conditions described by Edlund et al (Edlund et al., 1995).
(§2) To elucidate the possible relation between the accumulation of free Trp content and resistance to 5MT and CdCl2, free Trp content was measured in AtTSB1 transgenic plants. […] The level in the transgenic plants TM1, TM3 and TM4 was 10- to 15-fold higher (5,900-8,900 pmole/g dry weight) than in wild-type plants (587 pmole/g dry weight). […] A similar trend was observed when TC3, TC4 and TC5 transgenic plants were measured for Trp content, with or without CdCl2.

[2] = tested on: wild-type Arabidopsis; assay: Seedling survival of wild-type Arabidopsis on medium with 5MT or CdCl2; details: for seedling survival rate: WT, surviving/seeds; for survival of wild type / non-transformed plants: medium containing 75 μM 5MT or 300 μM CdCl2; for optimum concentration for the selection of putative transformants: wild-type versus transgenic seedlings
Method: (§3) Arabidopsis thaliana (L.) Hyen. ecotype Columbia was grown in controlled environment chambers at 24° C., 70% relative humidity, with 24 h photoperiod (about 120 μmol m^−2s^−1). To transform Arabidopsis plants, we used the floral dip method described previously (Clough and Bent, 1998). To transgenic plants constitutively expressing AtTSB1, were selected on MS medium with 20 ppm hygromycin (Murashige and Skoog 1962). The sensitivity of wild type and transgenic T2 homozygous seeds (T3 generation) to different concentrations of 5MT and CdCl2 were assessed on the basis of the germination percentage of seedlings at the end of 2 weeks. After standardizing the optimal selection concentration of 5MT and CdCl2, the floral dip transformation was again performed to evaluate the selection efficiency between TSB1 and conventional hydromycin selection systems.
(§4) Different concentrations of 5MT (0, 25, 50, 75, 100 and 200 μM) and CdCl2 (0, 50, 100, 200, 300, 400 and 500 μM) were evaluated in order to select the transformants constitutively expressing AtTSB1 gene and in these experiments untransformed wild-types used as negative control. Sixty seeds of each wild-type and transgenic seeds were germinated on medium containing various concentrations of 5MT for 2 weeks, and the number of surviving plants recorded (Table 1). Under all the tested conditions, both wild-type and transgenic seeds could germinate almost equally. […] In the meantime, all seedlings on medium containing less than 50 μM 5MT survived selection even after 2 weeks. Thus, 75 μM 5MT is the optimum concentration for the selection of putative transformants.
(§5) A total of one hundred seeds each of wild-type and transgenic plants were germinated on medium containing different concentrations of CdCl2, for 2 weeks, and the survival was recorded (Table 2). The germination rate in wild-type and transgenic seedlings was almost equal on the medium containing CdCl2 concentrations up to 300 μM. […] All the wild-type and transgenic seedlings survived even after 2 weeks on medium containing CdCl2 less than 100 μM. From these observations, we concluded that 300 μM CdCl2 is the optimal concentration needed for selecting putative transformants.

[3] = tested on: wild-type plants; assay: Free Trp content analysis (GC-MS), wild-type plants
Method: as §1, §2

[4] = tested on: wild-type Arabidopsis; assay: Seedling survival of wild-type Arabidopsis on medium with 5MT or CdCl2; details: WT, 1 week, surviving/seeds
[5] = tested on: AtTSB1 transgenic Arabidopsis (TH); assay: Seedling survival of AtTSB1 transgenic (TH) Arabidopsis on medium with 5MT or CdCl2; details: for seedling survival rate: TH, 2 weeks, surviving/seeds; for survival / growth of transgenic plants: medium containing 75 μM 5MT or 300 μM CdCl2
Method: as §3, §4, §5

[6] = tested on: AtTSB1 transgenic Arabidopsis (TH); assay: as above; details: for seedling survival rate: TH, surviving/seeds

SMILES: Cc1ccc2[nH]cc(C[C@H](N)C(=O)O)c2c1 [5MT, 5-methyl-tryptophan]
- Endogenous contents of tryptophan ([1]; TM1 + 5MT 50 μM): 5,200 ± 14 pmole/g g · DW
- Endogenous contents of tryptophan ([1]; TM3 + 5MT 50 μM): 5,100 ± 11 pmole/g g · DW
- Endogenous contents of tryptophan ([1]; TM4 + 5MT 50 μM): 7,200 ± 10 pmole/g g · DW
- level of free Trp ([1]; transgenic plants TM1, TM3 and TM4, 5MT in the medium): 5,100-7,200 pmole/g dry weight
- growth of wild-type plants ([2]; 75 μM and higher (100 and 200 μM) 5MT, after 2 weeks): turned pale green and ceased to grow
- seedling survival rate ([2]; 5MT 25 μM, 1 week): 60/60
- seedling survival rate ([2]; 5MT 25 μM, 2 weeks): 24/60
- seedling survival rate ([2]; 5MT 50 μM, 1 week): 60/60
- seedling survival rate ([2]; 5MT 50 μM, 2 weeks): 10/60
- seedling survival rate ([2]; 5MT 75 μM, 2 weeks): 0/60
- seedling survival rate ([2]; 5MT 100 μM, 2 weeks): 0/60
- seedling survival rate ([2]; 5MT 200 μM, 1 week): 12/60
- seedling survival rate ([2]; 5MT 200 μM, 2 weeks): 0/60
- survival of wild type / non-transformed plants [2]: did not survive; also recorded: deteriorated
- optimum concentration for the selection of putative transformants ([2]; 2 weeks): 75 µM
- Endogenous contents of tryptophan ([3]; wild type + 5MT 50 μM, two-week old plants): 125 ± 6 pmole/g g · DW
- level of free Trp ([3]; wild-type plants, 5MT in the medium): 125 pmole/g dry weight
- reduction of the level of free Trp ([3]; wild-type plants, 5MT in the medium versus without): fivefold
- seedling survival rate ([4]; 5MT 75 μM): 60/60
- seedling survival rate ([4]; 5MT 100 μM): 25/60
- seedling survival rate ([5]; 5MT 25 μM): 60/60
- seedling survival rate ([5]; 5MT 100 μM): 34/60
- survival / growth of transgenic plants [5]: grew and survived
- survival rate ([5]; transgenic seedlings, 75 μM 5MT): 100%
- seedling survival rate ([6]; 5MT 50 μM, 1 week): 40/40
- seedling survival rate ([6]; 5MT 50 μM, 2 weeks): 60/60
- seedling survival rate ([6]; 5MT 75 μM, 1 week): 60/60
- seedling survival rate ([6]; 5MT 75 μM, 2 weeks): 60/60
- seedling survival rate ([6]; 5MT 100 μM, 1 week): 60/60
- seedling survival rate ([6]; 5MT 200 μM, 1 week): 60/60
- seedling survival rate ([6]; 5MT 200 μM, 2 weeks): 18/60
- resistance of transgenic seedlings ([6]; all concentrations of 5MT tested (100 and 200 μM)): showed resistance

SMILES: [Cl][Cd][Cl] [CdCl2]
- seedling survival rate ([2]; CdCl2 50 μM, 1 week): 100/100
- seedling survival rate ([2]; CdCl2 50 μM, 2 weeks): 100/100
- seedling survival rate ([2]; CdCl2 100 μM, 1 week): 100/100
- seedling survival rate ([2]; CdCl2 100 μM, 2 weeks): 100/100
- seedling survival rate ([2]; CdCl2 200 μM, 2 weeks): 30/100
- seedling survival rate ([2]; CdCl2 300 μM, 2 weeks): 0/100
- seedling survival rate ([2]; CdCl2 400 μM, 2 weeks): 0/100
- seedling survival rate ([2]; CdCl2 500 μM, 1 week): 8/100
- seedling survival rate ([2]; CdCl2 500 μM, 2 weeks): 0/100
- survival of wild type / non-transformed plants [2]: did not survive; also recorded: deteriorated
- optimum concentration for the selection of putative transformants ([2]; 2 weeks): 300 µM
- seedling survival rate ([4]; CdCl2 200 μM): 100/100
- seedling survival rate ([4]; CdCl2 300 μM): 80/100
- seedling survival rate ([4]; CdCl2 400 μM): 12/100
- growth of transgenic plants ([5]; 300 μM CdCl2, after 2 weeks): slightly inhibited
- seedling survival rate ([5]; CdCl2 100 μM): 100/100
- seedling survival rate ([5]; CdCl2 200 μM): 95/100
- seedling survival rate ([5]; CdCl2 300 μM): 98/100
- seedling survival rate ([5]; CdCl2 500 μM): 62/100
- survival / growth of transgenic plants [5]: grew and survived
- transgenic seedlings greener than controls ([6]; 300 μM CdCl2, after 2 weeks): 98%
- seedling survival rate ([6]; CdCl2 50 μM, 1 week): 100/100
- seedling survival rate ([6]; CdCl2 50 μM, 2 weeks): 100/100
- seedling survival rate ([6]; CdCl2 100 μM, 1 week): 100/100
- seedling survival rate ([6]; CdCl2 200 μM, 1 week): 100/100
- seedling survival rate ([6]; CdCl2 300 μM, 1 week): 100/100
- seedling survival rate ([6]; CdCl2 400 μM, 1 week): 100/100
- seedling survival rate ([6]; CdCl2 400 μM, 2 weeks): 80/100
- seedling survival rate ([6]; CdCl2 500 μM, 1 week): 100/100
